# Data taken from ChEMBL document CHEMBL5365475, “Design, synthesis and antiplasmodial evaluation of new amide-, carbamate-, and ureido-type harmicines” (Bioorg Med Chem, 2023).
# The source made the active and inactive calls. The rule behind the calls is not given here.
# Experiments:
# Plasmodium berghei [1] = assay: Antiplasmodial activity against luciferase-expressing Plasmodium berghei infected in human Huh-7 cells assessed as reduction in parasite load at 1 to 10 uM preincubated with cells for 1 hr followed by parasite infection and measured after 46 hrs by bioluminescence assay; assay type: functional, organism-based; details: dose 1-10 µM, time 47.0 hrs
# Plasmodium falciparum [2] = assay: Antimalarial activity against erythrocytic stage of chloroquine-sensitive Plasmodium falciparum 3D7 measured after 3 days by HRP2-ELISA analysis; assay type: functional, organism-based; details: 3D7, 72 h
# Plasmodium falciparum [3] = assay: Antimalarial activity against erythrocytic stage of chloroquine-resistant Plasmodium falciparum Dd2 measured after 3 days by HRP2-ELISA analysis; assay type: functional, organism-based; details: Dd2, 72 h
# Plasmodium falciparum [4] = assay: Resistance index, ratio of IC50 for antiplasmodial activity against chloroquine-resistant Plasmodium falciparum Dd2 to IC50 for antiplasmodial activity against chloroquine-sensitive Plasmodium falciparum 3D7; assay type: functional
# HepG2 = assay: Cytotoxicity against human HepG2 cells assessed as reduction in cell viability incubated for 72 hrs by MTT assay; assay type: functional, cell-based; details: HepG2, 72 h
# [5] = Selectivity index, ratio of IC50 for cytotoxicity against human HepG2 cells to IC50 for erythrocytic stage of chloroquine-sensitive Plasmodium falciparum 3D7; assay type: toxicity, cell-based; details: read-out: Ratio IC50
# Plasmodium berghei [6] = assay: Antiplasmodial activity against luciferase-expressing Plasmodium berghei infected in human Huh-7 cells assessed as reduction in parasite load preincubated with cells for 1 hr followed by parasite infection and measured after 46 hrs by bioluminescence assay; assay type: functional, organism-based
SMILES,Activity (Plasmodium berghei [1]),IC50 (Plasmodium falciparum [2]) [nM],IC50 (Plasmodium falciparum [3]) [nM],Ratio IC50 (Plasmodium falciparum [4]),IC50 (HepG2) [µM],selectivity ratio [5],IC50 (Plasmodium berghei [6]) [nM]
COc1cc(NC(C)CCCN)c2ncccc2c1 (configuration not stated),Active,,,,,,
COc1ccc2c3ccnc(C)c3n(CCNC(=O)OC/C=C/c3ccccc3Cl)c2c1,,1240,1330,1.07,,,
COc1ccc2c3ccnc(C)c3n(CCNC(=O)/C=C/c3ccc(Br)cc3)c2c1,Active,410,,,8.58,8.76,
CCCOc1ccc(/C=C/CNC(=O)NCCn2c3cc(OC)ccc3c3ccnc(C)c32)cc1,Active,420,1120,2.67,4.33,10.3,
COc1ccc2c(c1)[nH]c1c(C)nccc12 [HARMINE],,,> 27700,> 3.36,> 250,30,
COc1ccc2c3ccnc(C)c3n(CCNC(=O)/C=C/c3ccccc3Cl)c2c1,Active,320,500,1.56,7.19,21.8,
COc1ccc2c3ccnc(C)c3n(CCNC(=O)OC/C=C/c3ccc(C(F)(F)F)cc3)c2c1,Active,790,700,0.89,6.71,8.49,
COc1ccc2c3ccnc(C)c3n(CCNC(=O)OC/C=C/c3cccc(C(F)(F)F)c3)c2c1,Active,500,1920,3.84,,,
COc1ccc2c3ccnc(C)c3n(CCNC(=O)OC/C=C/c3ccc(Br)cc3)c2c1,Active,420,1090,2.6,9.05,21.6,
CCCOc1ccc(/C=C/COC(=O)NCCn2c3cc(OC)ccc3c3ccnc(C)c32)cc1,Active,390,830,2.13,9.96,19.9,
COc1ccc2c3ccnc(C)c3n(CCNC(=O)/C=C/c3ccc([N+](=O)[O-])cc3)c2c1,Active,1360,2050,1.51,17.5,31.8,
COc1ccc2c3ccnc(C)c3n(CCNC(=O)OC/C=C/c3cccc(OC(F)(F)F)c3)c2c1,Active,680,1780,2.62,8.71,12.8,
COc1ccc2c3ccnc(C)c3n(CCNC(=O)OC/C=C/c3cccc(Cl)c3)c2c1,Active,970,1190,1.23,8.52,8.78,
COc1ccc2c3ccnc(C)c3n(CCNC(=O)OC/C=C/c3ccccc3)c2c1,Active,550,1370,2.49,7.21,18.5,3380
COc1ccc2c3ccnc(C)c3n(CCNC(=O)NC/C=C/c3cccc(C(F)(F)F)c3)c2c1,Active,220,1070,4.86,9.84,44.7,2890
COc1ccc2c3ccnc(C)c3n(CCNC(=O)/C=C/c3cccc(Cl)c3)c2c1,Active,330,680,2.06,8.97,25.6,
COc1ccc2c3ccnc(C)c3n(CCNC(=O)/C=C/c3cccc(OC(F)(F)F)c3)c2c1,Active,350,2110,6.03,6.64,16.2,2290
COc1ccc2c3ccnc(C)c3n(CCNC(=O)OC/C=C/c3cc(C(F)(F)F)cc(C(F)(F)F)c3)c2c1,,650,2630,4.05,7.19,21.8,
COc1ccc2c3ccnc(C)c3n(CCNC(=O)OC/C=C/c3ccc([N+](=O)[O-])cc3)c2c1,Active,360,330,0.92,,,
COc1ccc2c3ccnc(C)c3n(CCNC(=O)OC/C=C/c3ccc(C)cc3)c2c1,Active,1130,2280,2.48,9.92,8.78,
COc1ccc2c3ccnc(C)c3n(CCNC(=O)/C=C/c3ccc(C)cc3)c2c1,Active,980,640,0.65,8.16,6,
